Some test systems named below: SF-295 CNS; OVCAR-8 ovarian; HT29 colon; U251 CNS; SK-MEL-2 melanoma; DU-145 prostate; HCC-2998 colon; 786-0 renal; SR leukemia; MDA-MB-435.
What all share (assay): growth of human tumour cells (NCI), 48 h

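Results reflect a 48-hour exposure of cells in 96-well plates to compound at five concentrations. GI50: concentration for 50% inhibition of growth. TGI: total growth inhibition.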 A value given as a limit tells only on which side of the number the result lay.

For the compound `CNC(=O)Oc1cc(C)c(/C=C/c2cncc(C(=O)NC)c2)c(C)c1`, the GI50 in the assay with SF-295 CNS, with OVCAR-8 ovarian, with HT29 colon, in the assay with U251 CNS, in the assay on SK-MEL-2 melanoma and with DU-145 prostate was greater than 25 µM each time. Besides, the GI50 is greater than 25 µM with HCC-2998 colon, greater than 25 µM in the assay with 786-0 renal, greater than 20.4 µM in the assay on SR leukemia and 8.44 µM in the assay with MDA-MB-435. Besides, the TGI in the assay with SF-295 CNS, in the assay on OVCAR-8 ovarian, in the assay on HT29 colon, in the assay on U251 CNS, in the assay with SK-MEL-2 melanoma and with DU-145 prostate was greater than 25 µM in each case. In addition, the TGI in the assay with HCC-2998 colon, in the assay on 786-0 renal, in the assay with SR leukemia and with MDA-MB-435 was greater than 25 µM each time.
Regarding `O=S(=O)(Nc1cc(Cl)ccc1Cl)c1ccc(-c2cnc(C3CC3)o2)cc1`, the GI50 with SF-295 CNS is 0.406 µM; in the assay with OVCAR-8 ovarian, 3.95 µM; in the assay on HT29 colon, 0.654 µM; with U251 CNS it was 2 µM; in the assay with SK-MEL-2 melanoma, 11.1 µM; with DU-145 prostate it was 3.72 µM. The GI50 in the assay with HCC-2998 colon was 3.03 µM; with 786-0 renal, 0.539 µM; in the assay on SR leukemia, 0.551 µM; with MDA-MB-435, 0.346 µM. Moreover, the TGI in the assay on SF-295 CNS is 10.3 µM; with OVCAR-8 ovarian, greater than 100 µM; in the assay with HT29 colon, 13.5 µM; in the assay on U251 CNS, 68.2 µM; in the assay with SK-MEL-2 melanoma, 68.8 µM; in the assay with DU-145 prostate, greater than 100 µM. The TGI in the assay with HCC-2998 colon is 25.2 µM; in the assay on 786-0 renal, 20.9 µM; in the assay on SR leukemia, greater than 100 µM; in the assay with MDA-MB-435, 1.49 µM.
In the case of `COC(=O)[C@H](Cc1ccc(O)cc1)NC(=O)[C@@H](OC)[C@@H]1Cc2cc3cc(OC4CC(OC5CC(O)C(O)C(C)O5)C(O)C(C)O4)c(C)c(O)c3c(O)c2C(=O)[C@H]1OC1CC(OC2CC(OC3CC(C)(O)C(O)C(C)O3)C(O)C(C)O2)C(O)C(C)O1` (stereo not given in full), the GI50 in the assay on SF-295 CNS is 0.132 µM; in the assay on OVCAR-8 ovarian it was 0.166 µM; with HT29 colon, 0.102 µM; with U251 CNS it was 0.113 µM; in the assay with SK-MEL-2 melanoma it was 0.1 µM; in the assay with DU-145 prostate it was 0.164 µM. Moreover, the GI50 was 0.172 µM in the assay with HCC-2998 colon, 0.16 µM with 786-0 renal, 0.0163 µM with SR leukemia and 0.0931 µM in the assay with MDA-MB-435. Besides, the TGI was greater than 25 µM in the assay on SF-295 CNS; greater than 25 µM in the assay with OVCAR-8 ovarian; greater than 25 µM in the assay with HT29 colon; greater than 25 µM with U251 CNS; 0.748 µM with SK-MEL-2 melanoma; greater than 25 µM in the assay with DU-145 prostate. Besides, the TGI in the assay with HCC-2998 colon is 0.758 µM; in the assay with 786-0 renal, greater than 25 µM; in the assay with SR leukemia, greater than 25 µM; in the assay on MDA-MB-435, 2.33 µM.
As to `COC1CC(NC(=O)C(F)(F)F)C(OC(C)=O)C(C)O1` (stereo not given), the TGI in the assay on SF-295 CNS, with OVCAR-8 ovarian, in the assay with HT29 colon, in the assay with U251 CNS, with SK-MEL-2 melanoma and in the assay on DU-145 prostate was greater than 100 µM throughout. The TGI in the assay on HCC-2998 colon, in the assay on 786-0 renal, with SR leukemia and in the assay with MDA-MB-435 was greater than 100 µM throughout.
As for `COc1cc(OC)c(NC(=O)c2cc3ccccc3cc2O)cc1Cl`, the GI50 with SF-295 CNS was 2.8 µM; with OVCAR-8 ovarian, 2.88 µM; in the assay on HT29 colon, 4.88 µM; in the assay with U251 CNS it was 3.22 µM; with SK-MEL-2 melanoma, 2.25 µM; in the assay with DU-145 prostate, 3.72 µM. Moreover, the GI50 with HCC-2998 colon was 3.73 µM; with 786-0 renal, 4.51 µM; in the assay with SR leukemia, 5.25 µM; in the assay on MDA-MB-435, 2.84 µM. For the same compound, the TGI with SF-295 CNS was determined as 9.16 µM; in the assay on OVCAR-8 ovarian, 8.45 µM; in the assay with HT29 colon, 30.1 µM; with U251 CNS it was 10.5 µM; in the assay with SK-MEL-2 melanoma, 6.14 µM; in the assay with DU-145 prostate, 38.2 µM. The TGI in the assay with HCC-2998 colon is 13.8 µM; in the assay on 786-0 renal it was greater than 100 µM; with SR leukemia, 91.5 µM; in the assay on MDA-MB-435, 9.69 µM.
Turning to `C/C(=C\COc1c2c(cc3c1CCO3)OC1(C=C2)OC(CC/C(C)=C/COc2c3ccoc3cc3oc(=O)ccc23)C(C)(C)O1)CCC(O)C(C)(C)O` (stereo not given), the GI50 with SF-295 CNS is 9.09 µM; with OVCAR-8 ovarian it was 8.56 µM; with HT29 colon, 22.4 µM; in the assay on U251 CNS, 44.4 µM; in the assay with SK-MEL-2 melanoma, 9.58 µM; in the assay with DU-145 prostate, greater than 100 µM. Besides, the GI50 in the assay with HCC-2998 colon is 89.6 µM; with 786-0 renal it was greater than 100 µM; in the assay on SR leukemia, 5.04 µM; in the assay with MDA-MB-435, 36.4 µM. Besides, the TGI in the assay on SF-295 CNS, with OVCAR-8 ovarian, with HT29 colon, in the assay on U251 CNS, in the assay with SK-MEL-2 melanoma and in the assay with DU-145 prostate was greater than 100 µM each time. The TGI in the assay on HCC-2998 colon, in the assay on 786-0 renal, with SR leukemia and with MDA-MB-435 was greater than 100 µM in each case.
Turning to `O=C(NCc1ccco1)c1ccc(NC2=C(Cl)C(=O)N(Cc3ccccc3)C2=O)cc1`, the GI50 in the assay on SF-295 CNS is 20.8 µM; in the assay on OVCAR-8 ovarian it was 42.5 µM; in the assay with HT29 colon, 35 µM; with U251 CNS, 18.3 µM; in the assay on SK-MEL-2 melanoma, 23.8 µM; in the assay with DU-145 prostate, 15.8 µM. Further, the GI50 in the assay with HCC-2998 colon is 22.9 µM; in the assay with 786-0 renal, 12.6 µM; in the assay with SR leukemia it was 2.21 µM; with MDA-MB-435, 16.3 µM. For the same compound, the TGI in the assay with SF-295 CNS was 55.1 µM; with OVCAR-8 ovarian, greater than 100 µM; in the assay on HT29 colon, greater than 100 µM; in the assay on U251 CNS, 44.9 µM; in the assay on SK-MEL-2 melanoma, 55.8 µM; in the assay on DU-145 prostate, 29.2 µM. The TGI with HCC-2998 colon amounted to 37.4 µM; in the assay with 786-0 renal it was 28.2 µM; in the assay with SR leukemia it was 7.14 µM; in the assay with MDA-MB-435, 37.6 µM.
For the compound `O=C(NN=C1CCCCC1)c1[nH]c2ccc(F)cc2c1-c1ccccc1`, the GI50 in the assay with SF-295 CNS was 33.6 µM; in the assay on OVCAR-8 ovarian it was 51.4 µM; in the assay on HT29 colon, 20.9 µM; in the assay with U251 CNS, 17.8 µM; in the assay with SK-MEL-2 melanoma it was greater than 100 µM; in the assay on DU-145 prostate, 92.2 µM. The GI50 was 17.4 µM in the assay with HCC-2998 colon, 44.2 µM with 786-0 renal, 12.9 µM with SR leukemia and 35.3 µM in the assay with MDA-MB-435. For the same compound, the TGI in the assay with SF-295 CNS was greater than 100 µM; in the assay on OVCAR-8 ovarian, greater than 100 µM; in the assay with HT29 colon it was 46.5 µM; in the assay on U251 CNS, 37.7 µM; with SK-MEL-2 melanoma, greater than 100 µM; in the assay on DU-145 prostate it was greater than 100 µM. In addition, the TGI in the assay on HCC-2998 colon is 36.4 µM; in the assay on 786-0 renal, greater than 100 µM; in the assay with SR leukemia, 41.9 µM; in the assay with MDA-MB-435 it was greater than 100 µM.
Regarding `C=C(CN1CCN(c2cccc(C(F)(F)F)n2)CC1)c1ccc(C(=S)Nc2ccccc2N)cc1`, the GI50 in the assay on SF-295 CNS is 3.48 µM; in the assay with OVCAR-8 ovarian, 5.33 µM; with HT29 colon, 3.05 µM; in the assay on U251 CNS, 3.77 µM; with SK-MEL-2 melanoma, 4.13 µM; in the assay with DU-145 prostate, 6.99 µM. The GI50 in the assay with HCC-2998 colon was 5.74 µM; with 786-0 renal, 4.29 µM; in the assay on SR leukemia it was 2.44 µM; with MDA-MB-435, 3.77 µM. Besides, the TGI in the assay on SF-295 CNS is greater than 100 µM; in the assay with OVCAR-8 ovarian, greater than 100 µM; in the assay on HT29 colon, 18.2 µM; in the assay on U251 CNS, 38.5 µM; in the assay with SK-MEL-2 melanoma, greater than 100 µM; with DU-145 prostate, greater than 100 µM. Besides, the TGI was greater than 100 µM with HCC-2998 colon, greater than 100 µM in the assay on 786-0 renal, 6.49 µM in the assay on SR leukemia and greater than 100 µM in the assay on MDA-MB-435.
For `O=C(/C(=C/c1ccc([N+](=O)[O-])cc1)SCc1ccc(F)cc1)c1ccc(Cl)cc1`, the GI50 is 7.09 µM in the assay on SF-295 CNS; 6.6 µM with OVCAR-8 ovarian; 2.38 µM with HT29 colon; 2.07 µM in the assay on U251 CNS; 13.8 µM in the assay with SK-MEL-2 melanoma; 38.6 µM in the assay with DU-145 prostate. The GI50 is 5.11 µM with HCC-2998 colon, 10.9 µM with 786-0 renal, 2.63 µM with SR leukemia and 2.78 µM in the assay on MDA-MB-435. In addition, the TGI in the assay with SF-295 CNS was 25.1 µM; in the assay on OVCAR-8 ovarian, 96.6 µM; with HT29 colon, 6.2 µM; with U251 CNS, 4.02 µM; with SK-MEL-2 melanoma it was 36.4 µM; in the assay with DU-145 prostate it was greater than 100 µM. Moreover, the TGI in the assay with HCC-2998 colon was 19 µM; with 786-0 renal it was 24.6 µM; with SR leukemia, greater than 100 µM; with MDA-MB-435, 9.49 µM.
Turning to `CCOC(=O)C(C)(C)C(O)C(C)C` (stereo not given), the TGI in the assay with SF-295 CNS, in the assay with OVCAR-8 ovarian, in the assay with HT29 colon, with U251 CNS, in the assay with SK-MEL-2 melanoma and with DU-145 prostate was greater than 100 µM each time. For the same compound, the TGI with HCC-2998 colon, with 786-0 renal, in the assay on SR leukemia and in the assay on MDA-MB-435 was greater than 100 µM in each case.
